Where two headings read alike, the source gives them in different places.

The subject of one assay is Puccinia triticina. The assay can be described thus: Wheat Brown Rust fungicidal activity (PUCCRT). In kind it is in vivo. The note with it: Puccinia triticina; for pest or weed control at 100 ppm: rate 100 ppm; for pest or weed control at 121.5 g/ha: rate 121.5 g/H. Here is the method: Technical grades of materials were dissolved in acetone, which were then mixed with nine volumes of water containing 110 ppm Triton X-100. The fungicide solutions were applied onto wheat seedlings using an automated booth sprayer to run-off. All sprayed plants were allowed to air dry prior to further handling. All fungicides were evaluated using the aforementioned method for their activity vs. all target diseases. Wheat leaf blotch and brown rust activity were also evaluated using track spray applications, in which case the fungicides were formulated as EC formulations, containing 0.1% Trycol 5941 in the spray solutions. Wheat plants (variety Yuma) were grown from seed in a greenhouse in 50% mineral soil/50% soil-less Metro mix until the first leaf was fully emerged, with 7-10 seedlings per pot. These plants were inoculated with an aqueous spore suspension of Septoria tritici either prior to or after fungicide treatments. After inoculation the plants were kept in 100% relative humidity (one day in a dark dew chamber followed by two to three days in a lighted dew chamber at 20° C.) to permit spores to germinate and infect the leaf. The plants were then transferred to a greenhouse set at 20° C. for disease to develop. When disease symptoms were fully expressed on the 1st leaves of untreated plants, infection levels were assessed on a scale of 0 to 100 percent disease severity. Percent disease control was calculated using the ratio of disease severity on treated plants relative to untreated plants. Evaluation of Fungicidal Activity: Wheat Brown Rust (Puccinia triticina; Synonym: Puccinia recondite f sp. tritici; Bayer code PUCCRT) Wheat plants (variety Yuma) were grown from seed in a greenhouse in 50% mineral soil/50% soil-less Metro mix until the first leaf was fully emerged, with 7-10 seedlings per pot. These plants were inoculated with an aqueous spore suspension of Puccinia triticina either prior to or after fungicide treatments. After inoculation the plants were kept in a dark dew room at 22° C. with 100% relative humidity overnight to permit spores to germinate and infect the leaf. The plants were then transferred to a greenhouse set at 24° C. for disease to develop. Fungicide formulation, application and disease assessment followed the procedures as described in the Example A.

Assay [1] concerns Mycosphaerella graminicola; Anamorph: Septoria tritici. The assay can be described thus: Leaf Blotch of Wheat fungicidal activity (SEPTTR). The conditions noted are these: Zymoseptoria tritici; for pest or weed control at 100 ppm: rate 100 ppm; for pest or weed control at 121.5 g/ha: rate 121.5 g/H. In kind it is in vivo. How it is done:
Evaluation of Fungicidal Activity: Leaf Blotch of Wheat (Mycosphaerella graminicola; Anamorph: Septoria tritici; Bayer code […]) Technical grades of materials were dissolved in acetone, which were then mixed with nine volumes of water containing 110 ppm Triton X-100. The fungicide solutions were applied onto wheat seedlings using an automated booth sprayer to run-off. All sprayed plants were allowed to air dry prior to further handling. All fungicides were evaluated using the aforementioned method for their activity vs. all target diseases. Wheat leaf blotch and brown rust activity were also evaluated using track spray applications, in which case the fungicides were formulated as EC formulations, containing 0.1% Trycol 5941 in the spray solutions. Wheat plants (variety Yuma) were grown from seed in a greenhouse in 50% mineral soil/50% soil-less Metro mix until the first leaf was fully emerged, with 7-10 seedlings per pot. These plants were inoculated with an aqueous spore suspension of Septoria tritici either prior to or after fungicide treatments. After inoculation the plants were kept in 100% relative humidity (one day in a dark dew chamber followed by two to three days in a lighted dew chamber at 20° C.) to permit spores to germinate and infect the leaf. The plants were then transferred to a greenhouse set at 20° C. for disease to develop. When disease symptoms were fully expressed on the 1st leaves of untreated plants, infection levels were assessed on a scale of 0 to 100 percent disease severity. Percent disease control was calculated using the ratio of disease severity on treated plants relative to untreated plants.

Setting [2] is: 24 h, 1 Day Protectant, read-out: Disease control PUCCRT 1DP.
The mark [3] stands for this setting: 72 h, 3 Day Curative, read-out: Disease control PUCCRT 3DC.
[4] abbreviates: 24 h, 1 Day Protectant, read-out: Disease control SEPTTR 1DP.
Setting [5] is: 72 h, 3 Day Curative, read-out: Disease control SEPTTR 3DC.

As to `CCCO[C@@H]1[C@@H](CCC(C)C)COC[C@H](NC(=O)c2nccc(OC)c2O)C(=O)O[C@H]1C` [Compound F38], the pest or weed control at 100 ppm (in the assay on Puccinia triticina (setting [2]); in the assay with Puccinia triticina (setting [3]); in assay [1] (setting [4]); in assay [1] (setting [5])) was 80 to 100% throughout.
On to `COc1ccnc(C(=O)N[C@H]2COC[C@H](CCC(C)C)[C@@H](OC3CCCC3)[C@H](C)OC2=O)c1O` [Compound F39], for which the pest or weed control at 100 ppm (with Puccinia triticina (setting [2]); in the assay with Puccinia triticina (setting [3]); in assay [1] (setting [4]); in assay [1] (setting [5])) was 80 to 100% throughout.
Take `COc1ccnc(C(=O)N[C@H]2COC[C@H](Cc3cc(F)c(F)c(F)c3)[C@@H](OCC(C)C)[C@H](C)OC2=O)c1O` [Compound F40]: the pest or weed control at 100 ppm in the assay with Puccinia triticina (setting [2]) is 0 to 80%; in assay [1] (setting [4]), 80 to 100%; in assay [1] (setting [5]) it was 80 to 100%.
As to `COc1ccnc(C(=O)N[C@H]2COC[C@H](Cc3ccc(C)cc3)[C@@H](OCC(C)C)[C@H](C)OC2=O)c1O` [Compound F48, 3-hydroxy-N-((3S,7S,8R,9S)-8-isobutoxy-9-methyl-7-(4-methylbenzyl)-2-oxo-1,5-dioxonan-3-yl)-4-methoxypicolinamide], the pest or weed control at 100 ppm in the assay with Puccinia triticina (setting [2]) was 80 to 100%; in the assay with Puccinia triticina (setting [3]), 80 to 100%; in assay [1] (setting [4]), 80 to 100%; in assay [1] (setting [5]), 0 to 80%.
As for `CCCCCO[C@@H]1[C@@H](Cc2ccc(C)cc2)COC[C@H](NC(=O)c2nccc(OC)c2OC(C)=O)C(=O)O[C@H]1C` [Compound F53], the pest or weed control at 100 ppm (with Puccinia triticina (setting [2]); in the assay with Puccinia triticina (setting [3]); in assay [1] (setting [4]); in assay [1] (setting [5])) was 80 to 100% in each case. In addition, the pest or weed control at 121.5 g/ha in the assay with Puccinia triticina (setting [2]) was in the range of 80 to 100%; with Puccinia triticina (setting [3]) it was 0 to 80%; in assay [1] (setting [4]), 80 to 100%; in assay [1] (setting [5]), 0 to 80%.
`CCCCCO[C@@H]1[C@@H](CCc2ccccc2)COC[C@H](NC(=O)c2nccc(OC)c2OC(C)=O)C(=O)O[C@H]1C` [Compound F55]: the pest or weed control at 100 ppm (with Puccinia triticina (setting [2]); with Puccinia triticina (setting [3]); in assay [1] (setting [4]); in assay [1] (setting [5])) was 80 to 100% each time.
As to `COc1ccnc(C(=O)N[C@H]2COC[C@H](CCc3ccccc3)[C@@H](OC(=O)C3CC3)[C@H](C)OC2=O)c1OC(C)=O` [Compound F57], the pest or weed control at 100 ppm (in the assay on Puccinia triticina (setting [2]); in the assay with Puccinia triticina (setting [3]); in assay [1] (setting [4]); in assay [1] (setting [5])) was 80 to 100% each time. For the same molecule, the pest or weed control at 121.5 g/ha was in the range of 80 to 100% in the assay with Puccinia triticina (setting [2]), 0 to 80% in the assay with Puccinia triticina (setting [3]), 80 to 100% in assay [1] (setting [4]) and 80 to 100% in assay [1] (setting [5]).
As to `COc1ccnc(C(=O)N[C@H]2COC[C@H](CCc3ccccc3)[C@@H](Oc3ccc(C)cc3)[C@H](C)OC2=O)c1OC(C)=O` [Compound F58], the pest or weed control at 100 ppm (with Puccinia triticina (setting [2]); in the assay on Puccinia triticina (setting [3]); in assay [1] (setting [4]); in assay [1] (setting [5])) was 80 to 100% in each case. Also, the pest or weed control at 121.5 g/ha in the assay with Puccinia triticina (setting [2]) fell in the range of 80 to 100%; in the assay with Puccinia triticina (setting [3]), 0 to 80%; in assay [1] (setting [4]), 80 to 100%; in assay [1] (setting [5]), 80 to 100%.
With `COc1ccnc(C(=O)N[C@H]2COC[C@H](Cc3ccc(F)cc3)[C@@H](Oc3ccccc3)[C@H](C)OC2=O)c1OC(C)=O` [Compound F59], the pest or weed control at 100 ppm (in the assay on Puccinia triticina (setting [2]); in the assay with Puccinia triticina (setting [3]); in assay [1] (setting [4]); in assay [1] (setting [5])) was 80 to 100% in each case. The pest or weed control at 121.5 g/ha lay in the range of 80 to 100% in the assay with Puccinia triticina (setting [2]), 0 to 80% with Puccinia triticina (setting [3]), 80 to 100% in assay [1] (setting [4]) and 80 to 100% in assay [1] (setting [5]).
With `COc1ccnc(C(=O)N[C@H]2COC[C@H](Cc3ccc(C)cc3)[C@@H](OC(=O)C3CC3)[C@H](C)OC2=O)c1OC(C)=O` [Compound F61], the pest or weed control at 100 ppm (in the assay with Puccinia triticina (setting [2]); with Puccinia triticina (setting [3]); in assay [1] (setting [4]); in assay [1] (setting [5])) was 80 to 100% throughout. The pest or weed control at 121.5 g/ha in the assay on Puccinia triticina (setting [2]) fell in the range of 80 to 100%; in the assay with Puccinia triticina (setting [3]) it was 0 to 80%; in assay [1] (setting [4]), 80 to 100%; in assay [1] (setting [5]), 0 to 80%.
Take `COc1ccnc(C(=O)N[C@H]2COC[C@H](Cc3ccc(C)cc3)[C@@H](OCCCC(F)(F)F)[C@H](C)OC2=O)c1OC(C)=O` [Compound F62]: the pest or weed control at 100 ppm (in the assay on Puccinia triticina (setting [2]); in the assay with Puccinia triticina (setting [3]); in assay [1] (setting [4]); in assay [1] (setting [5])) was 80 to 100% throughout. The pest or weed control at 121.5 g/ha fell in the range of 80 to 100% with Puccinia triticina (setting [2]), 0 to 80% in the assay with Puccinia triticina (setting [3]), 80 to 100% in assay [1] (setting [4]) and 80 to 100% in assay [1] (setting [5]).
For the molecule `COc1ccnc(C(=O)N[C@H]2COC[C@H](Cc3ccc(C)cc3)[C@@H](Oc3ccccc3)[C@H](C)OC2=O)c1OC(C)=O` [Compound F63], the pest or weed control at 100 ppm (with Puccinia triticina (setting [2]); in the assay on Puccinia triticina (setting [3]); in assay [1] (setting [4]); in assay [1] (setting [5])) was 80 to 100% in each case. Also, the pest or weed control at 121.5 g/ha in the assay with Puccinia triticina (setting [2]) fell in the range of 80 to 100%; in the assay on Puccinia triticina (setting [3]), 0 to 80%; in assay [1] (setting [4]), 80 to 100%; in assay [1] (setting [5]) it was 80 to 100%.
On to `COc1ccnc(C(=O)N[C@H]2COC[C@H](Cc3ccc(C)cc3)[C@@H](OC3CCCC3)[C@H](C)OC2=O)c1OC(C)=O` [Compound F64], for which the pest or weed control at 100 ppm (with Puccinia triticina (setting [2]); with Puccinia triticina (setting [3]); in assay [1] (setting [4]); in assay [1] (setting [5])) was 80 to 100% throughout.
`COc1ccnc(C(=O)N[C@H]2COC[C@H](Cc3ccc(C(F)(F)F)cc3)[C@@H](OCC(C)C)[C@H](C)OC2=O)c1OC(C)=O` [Compound F65]: the pest or weed control at 100 ppm (in the assay with Puccinia triticina (setting [2]); in the assay on Puccinia triticina (setting [3]); in assay [1] (setting [4]); in assay [1] (setting [5])) was 80 to 100% each time. The pest or weed control at 121.5 g/ha lay within 80 to 100% in the assay on Puccinia triticina (setting [2]), 0 to 80% with Puccinia triticina (setting [3]), 80 to 100% in assay [1] (setting [4]) and 80 to 100% in assay [1] (setting [5]).
On to `COc1ccnc(C(=O)N[C@H]2COC[C@H](Cc3ccc(C(F)(F)F)cc3)[C@@H](OC3CCCC3)[C@H](C)OC2=O)c1OC(C)=O` [Compound F66], for which the pest or weed control at 100 ppm lay in the range of 80 to 100% with Puccinia triticina (setting [2]), 0 to 80% in the assay with Puccinia triticina (setting [3]), 80 to 100% in assay [1] (setting [4]) and 0 to 80% in assay [1] (setting [5]). The pest or weed control at 121.5 g/ha with Puccinia triticina (setting [2]) lay in the range of 80 to 100%; in the assay with Puccinia triticina (setting [3]), 0 to 80%; in assay [1] (setting [4]) it was 80 to 100%; in assay [1] (setting [5]), 0 to 80%.
In the case of `COc1ccnc(C(=O)N[C@H]2COC[C@H](Cc3ccc(C(F)(F)F)cc3)[C@@H](OC(=O)C(C)C)[C@H](C)OC2=O)c1OC(C)=O` [Compound F67], the pest or weed control at 100 ppm lay within 80 to 100% in the assay with Puccinia triticina (setting [2]), 80 to 100% in the assay with Puccinia triticina (setting [3]), 80 to 100% in assay [1] (setting [4]) and 0 to 80% in assay [1] (setting [5]).

For the origin of these results see patent US9179674B2, “Macrocyclic picolinamide compounds with fungicidal activity” (DOW AGROSCIENCES LLC, priority 2013, dated 2015).
